According to PubChem BioAssay AID1996:
In brackets after ≈: the same amount, converted by molar mass.

details: buffer; pH 7.4; 200.0 µM

| SMILES | solubility kinetic |
| --- | --- |
| O=[N+]([O-])c1ccc(NC(=S)NCc2ccc(F)cc2)cc1 | 4.5 µg/mL (≈ 14.7 µM) |
| CC1CC(NC(=O)/C=C/C(=O)O)CC(C)(C)C1 (configuration not stated) | > 35.9 µg/mL |
| COc1cccc(NC(=O)c2ccc3c(c2)OCCO3)c1 | > 42.8 µg/mL |
| COc1cccc(C(=O)Nc2c(F)cccc2F)c1 | > 39.5 µg/mL |
| CCOC(=O)N1CCN(C(=O)C(C)NC(=O)c2ccco2)CC1 (configuration not stated) | 44.3 µg/mL (≈ 137 µM) |
| Cc1ccc(NC(=O)CCCC(=O)OC(C)C(=O)c2ccccc2)cc1 (configuration not stated) | > 53 µg/mL |
| Cc1ccc(C(=O)O)cc1N=Nc1c(O)[nH]c(=O)[nH]c1=O | > 43.5 µg/mL |
| O=C(Nc1ccon1)c1ccc(S(=O)(=O)N2CCOCC2)cc1 | 47.4 µg/mL (≈ 141 µM) |
| COC(=O)c1sccc1NC(=O)C1CCCCC1C(=O)O (configuration not stated) | 42.1 µg/mL (≈ 135 µM) |
| Cc1ccc(NC(=O)CCC(=O)c2cccs2)nc1 | 34.6 µg/mL (≈ 126 µM) |
| C=CCNC(=S)N/N=C(\C)c1cccc(NC(C)=O)c1 | > 43.6 µg/mL |
| COc1ccc(NC(=O)C2CCN(C(=O)c3ccco3)CC2)c(OC)c1 | 44.2 µg/mL (≈ 123 µM) |
| O=C(NC1CC1)c1cc(OCC(F)(F)F)ccc1OCC(F)(F)F | 44.3 µg/mL (≈ 124 µM) |
| O=C1Nc2ccccc2C1Cc1ccccc1 (configuration not stated) | 29 µg/mL (≈ 130 µM) |
| O=C(OCc1cc(=O)n2ccsc2n1)c1ccccc1NCCO | > 51.8 µg/mL |
| CN(C1CCCCC1)S(=O)(=O)c1ccc2[nH]c(=O)oc2c1 | > 46.6 µg/mL |
| Cc1ccc(N2C(=O)CC(=O)NC2=O)c(C)c1 | > 34.8 µg/mL |
| O=C(/C=C/c1ccco1)c1cccnc1 | 23.8 µg/mL (≈ 119 µM) |
| N#Cc1ccsc1NC(=O)C1=COCCO1 | > 35.4 µg/mL |
| CC(C)(C)C(=O)/C=C1\SCC(=O)N1CC(=O)N1CCN(c2ccccc2)CC1 | 33.7 µg/mL (≈ 83.9 µM) |
| CCCOc1ccc(C2NC(=O)CCC2[N+](=O)[O-])cc1 (configuration not stated) | > 41.7 µg/mL |
| NC(=O)Cc1nc(-c2ccc(F)cc2)cs1 | > 35.4 µg/mL |

| SMILES | solubility kinetic |
| --- | --- |
| CCn1c(=O)c2ccccc2n2c(SCC(N)=O)nnc12 | > 45.5 µg/mL |
| S=C(NCc1ccccc1)Nc1ccc2ccccc2c1 | 0.9 µg/mL (≈ 3.08 µM) |
| O=C1CNC(=O)/C(=C\c2ccc(F)cc2)N1 | 5 µg/mL (≈ 22.7 µM) |
| C#CCOc1ccc2c(c1)c(C(C)=O)c(C)n2Cc1ccccc1 | 1 µg/mL (≈ 3.15 µM) |
| Cc1csc(NC(=O)c2c(-c3ccccc3)noc2C)n1 | 37.4 µg/mL (≈ 125 µM) |
| CC(=O)N(C)c1ccc(N=C2C(=O)Nc3ccccc32)cc1 | > 44 µg/mL |
| CCCCC1=NN(C(=O)c2ccncc2)C(O)(C(F)(F)F)C1 (configuration not stated) | > 47.3 µg/mL |
| O=C(NC(=S)NCCc1ccccc1)c1ccccc1F | 0.8 µg/mL (≈ 2.65 µM) |
| Cc1ccc(S(=O)(=O)N2CCNC(=O)C2)c(C)c1 | > 40.2 µg/mL |
| O=C(COc1ccccc1)N1CCN=C1SCc1ccc(F)cc1 | 6.4 µg/mL (≈ 18.6 µM) |
| COc1ccc(Cl)cc1NC(=O)/C=C/C(=O)O | > 38.3 µg/mL |
| CCOc1ccccc1NC(=O)Nc1ccncc1 | 36.3 µg/mL (≈ 141 µM) |
| CC(CCc1ccccc1)NC(=O)c1ccc(Br)cc1 (configuration not stated) | 1.1 µg/mL (≈ 3.31 µM) |
| O=[N+]([O-])c1cncc([N+](=O)[O-])c1Nc1cccc(O)c1 | > 41.4 µg/mL |
| Cc1cc(SCC(=O)N2CCCC2=O)nc2c(C)cccc12 | 2.3 µg/mL (≈ 7.32 µM) |
| COc1cccc2c1CCc1c-2nc2ccccc2c1C(=O)O | > 45.8 µg/mL |
| Cc1ccc(-c2nc3ccc(Cl)cc3c(=O)n2O)cc1 | 42.2 µg/mL (≈ 147 µM) |
| Fc1ccc(CNC2CCN(Cc3ccccc3)CC2)cc1 | 35.7 µg/mL (≈ 120 µM) |
| CC1CCC(NC(=O)c2cc3c(s2)CCCC3)CC1 (configuration not stated) | 2.8 µg/mL (≈ 10.1 µM) |
| COc1ccccc1C(C)NC(=O)c1ccc(S(=O)(=O)NCc2ccco2)cc1 (configuration not stated) | 12.6 µg/mL (≈ 30.4 µM) |
| O=C(CNC(=O)c1cccnc1)N/N=C/c1ccc(O)cc1O | > 47.1 µg/mL |
| Cc1c(C(=O)NCCSCc2ccccc2)cccc1[N+](=O)[O-] | 46.6 µg/mL (≈ 141 µM) |

| SMILES | solubility kinetic |
| --- | --- |
| Cn1nc(C(F)(F)F)c(-c2ccccc2)c1NC(=O)CCC(=O)O | > 51.2 µg/mL |
| CCN(Cc1ccccc1)C(=O)c1[nH]c2ccc(OC)cc2c1C | 31.2 µg/mL (≈ 96.8 µM) |
| COc1ccc(C2NC(=O)c3ccccc3N2)cc1 (configuration not stated) | 33.2 µg/mL (≈ 131 µM) |
| Cc1cc(NC(=O)NC(C(F)(F)F)C(F)(F)F)no1 | 22.7 µg/mL (≈ 78 µM) |
| COc1ccc(CCNC(=O)COC(=O)Cc2c[nH]c3ccccc23)cc1OC | 47 µg/mL (≈ 119 µM) |
| COc1ccccc1N1CCN(C(=O)c2c(C)noc2C)CC1 | > 47.3 µg/mL |
| O=C(c1cc(Cl)nc2ccccc12)N1CCc2ccccc2C1 | 34.5 µg/mL (≈ 107 µM) |
| OCCNCC(O)CN1c2ccccc2Sc2ccccc21 (configuration not stated) | > 47.5 µg/mL |
| O=C(Nc1ccccc1Cc1ccccc1)c1ccccc1F | 3.1 µg/mL (≈ 10.2 µM) |
| COc1ccccc1NC(=O)CN1C(=O)COc2ccc(C)cc21 | 16.2 µg/mL (≈ 49.6 µM) |
| N#Cc1ccccc1COC(=O)c1cccnc1N | 10.5 µg/mL (≈ 41.5 µM) |
| Cc1ccc2[nH]cc(CCNC(=O)/C=C/c3ccco3)c2c1 | 36.9 µg/mL (≈ 125 µM) |
| Cc1cc(NC(=O)C(C)C)ncc1NC(=O)c1ccco1 | > 43.1 µg/mL |
| CC(C)NC(=O)COc1ccc(S(=O)(=O)N2CCCC2)cc1 | > 49 µg/mL |
| O=C(NCc1cccc(Cl)c1)c1ccncc1 | > 37 µg/mL |
| CC(C)Cn1c(S(=O)(=O)O)nc2ccccc21 | > 38.1 µg/mL |
| O=C(NCCOc1ccccc1F)C1CC(=O)N(Cc2ccccc2)C1 (configuration not stated) | > 53.5 µg/mL |
| Cc1ccc(CNC(=O)CSCc2ccccc2F)cc1 | 43.1 µg/mL (≈ 142 µM) |
| CN(Cc1c(F)cccc1Cl)C(=O)c1ccc2ccccc2n1 | > 49.3 µg/mL |
| CC(=O)Nc1ccc(S(=O)(=O)NC2CCCCCC2)cc1 | 35.1 µg/mL (≈ 113 µM) |
| CC(C)NC(=O)COc1cccc2ccccc12 | 31.8 µg/mL (≈ 131 µM) |
| O=CNCCc1nc2ccccc2n1CCc1ccccc1 | 41 µg/mL (≈ 140 µM) |

| SMILES | solubility kinetic |
| --- | --- |
| CCOc1ccc(CCNC(=O)COC(=O)c2ccncc2)cc1OCC | > 55.9 µg/mL |
| O=C(Nc1nccs1)C1CC(=O)N(c2ccc(Cl)cc2)C1 (configuration not stated) | 4.1 µg/mL (≈ 12.7 µM) |
| CCOc1cc(N2CCOCC2)c(OCC)cc1NC(=O)c1cc(S(=O)(=O)N2CCOCC2)ccc1F | 6.5 µg/mL (≈ 12.1 µM) |
| O=C(NCc1ccccc1Cl)[C@@H]1CCCN1S(=O)(=O)c1ccc(Cl)cc1 | 38.4 µg/mL (≈ 92.9 µM) |
| COc1ccc(NC(=O)N2CCc3cc(OC)c(OC)cc3C2)cc1 | 9.1 µg/mL (≈ 26.6 µM) |
| CNC(=O)COC(=O)c1cc2c(s1)CCCC2 | > 38 µg/mL |
| COc1cc2nc(NC(=O)c3ccccc3)sc(=O)c2cc1OC | < 0.4 µg/mL |
| Cc1ccccc1C(=O)NC(=S)NC1CC1 | 16.3 µg/mL (≈ 69.6 µM) |
| CCCn1cnc2cc(NC(=O)c3ccco3)ccc21 | > 40.4 µg/mL |
| FC(F)(F)c1ccccc1CNCc1ccc2c(c1)OCO2 | 25.8 µg/mL (≈ 83.4 µM) |
| Cl.NCCSC1CC(=O)N(Cc2ccc(F)cc2)C1=O (configuration not stated) | 37.9 µg/mL |
| CCc1ccc(C2CC(=O)N(c3cccc(F)c3)C3=C2C(=O)OC3)cc1 (configuration not stated) | 9.6 µg/mL (≈ 27.3 µM) |
| O=C(c1ccccc1F)N1CCCc2ccccc21 | 33.4 µg/mL (≈ 131 µM) |
| O=C(Nc1cccc2ncccc12)C(c1ccccc1)c1ccccc1 | < 0.4 µg/mL |
| O=C1C=C(Nc2ccc(F)cc2)c2ccccc2C1=O | < 0.6 µg/mL |
| Cc1c(C)n(Cc2ccccc2)c2ncnc(NCCCO)c12 | < 0.2 µg/mL |
| N#Cc1ccc(Cn2cc(C=O)c3ccccc32)cc1 | 4 µg/mL (≈ 15.4 µM) |
| O=[N+]([O-])c1ccccc1Nc1nc(-c2cccnc2)cs1 | 1.7 µg/mL (≈ 5.7 µM) |
| Cc1ccc(NC(=O)CCc2ccc(S(=O)(=O)N3CCOCC3)cc2)c(O)c1 | 44.6 µg/mL (≈ 110 µM) |
| CN(c1ccc(C(=O)NC2CCCC2)cc1)S(=O)(=O)c1ccccc1 | 48.9 µg/mL (≈ 136 µM) |
| Cc1nc2ccccc2n1CCc1ccccc1 | 30.1 µg/mL (≈ 127 µM) |
